According to patent publication US9556202B2, “Sulfonamide derivatives and methods of use thereof for improving the pharmacokinetics of a drug” (MERCK SHARP & DOHME CORP., priority 2012, dated 2017):

Legend:
CYP3A4 = molecular target: T1, CYP3A4 (Homo sapiens, UniProt P08684); test: IC50 vs CYP3A by inhibition of lopinavir metabolism in human liver microsomes; type: biochemical; details: human liver microsomes 0.01 mg/mL, 1.5 μM lopinavir, 8 min 37° C.; test conc. e.g. 0.098-100 nM; unit inferred; read-out: 3A4(LPV)
T1 construct: 0.01 mg/mL protein human liver microsomes (BD Gentest); tissue BD Gentest; host or cells: human liver microsomes
Description: Determination of IC50 Vs CYP3A by Measurement of Inhibition of Lopinavir Metabolism
This assay was performed in a standard 96-well plate design. IC50 values were calculated from the percent inhibition observed for each test compound at 6 concentrations (for example, 0.098, 0.391, 1.56, 6.25, 25 and 100 nM). The incubation substrate mix contains 1.5 μM lopinavir, 0.01 mg/mL protein human liver microsomes (BD Gentest), 1 mM NAPDH, 3.3 mM MgCl2 and 100 mM potassium phosphate buffer (pH 7.4). The production of the sum of three hydroxylated metabolites (M2: 6-hydroxy lopinavir, M3: 4-hydroxy lopinavir, M4: 4-hydroxy lopinavir (epimer of M3), Kumar et al., 1999) was determined after incubation for 8 min at 37° C. Quantitation of the metabolite peak area ratio against an internal standard (tolbutamide) was determined by LC/MS/MS analysis following acetonitrile treatment of the incubations.
Samples were analyzed in the MRM mode with a SCIEX API-4000 mass spectrometer (Applied Biosystems, Foster City, Calif.), with a Shimadzu LC-20 AD pump (Shimadzu corporation, Kyoto, JP) and a CTC PAL autosampler (Agilent Technologies, Switzerland). A Phenomenex, Luna, 5 μm, 100 A, 2.00×30 mm HPLC column was used for the separation. The mobile phases were: (A) 0.1% formic acid in water and (B) 0.1% formic acid in acetonitrile. The binary gradient was as follows.
The peak area ratio of the analyte to the internal standard was used to quantify the metabolite. The values of peak area ratios in the presence of test compound were compared to those of maximum or minimum controls and were expressed as % inhibition by interpolating between the maximum and minimum peak area ratios. Incubations with no inhibitor were defined as the maxima and with 5 μM ketoconazole were defined as the minima.
The following equation was used to calculate the % inhibition: [1−[(X−Low control)/(High control−Low control)]]*100
For the IC50 calculation, SigmaPlot was used to plot the mean % inhibition versus the test compound concentrations and for non-linear regression analysis of the data. Depending on the range of data points defining the inhibition curve, the data may have been fit to the 4-parameter logistic equation.

human CYP11B2 = molecular target: T2, human CYP11B2 (Homo sapiens, UniProt P19099); test: IC50 vs CYP11B2 by aldosterone synthesis in V79 cells (HTRF); type: cell-based; details: V79 cells expressing human CYP11B2, 750 nM DOC, test conc. 0.5-10000 nM, unit inferred
T2 construct: expressed in transfected cells
T2 sequence (P19099 25-503): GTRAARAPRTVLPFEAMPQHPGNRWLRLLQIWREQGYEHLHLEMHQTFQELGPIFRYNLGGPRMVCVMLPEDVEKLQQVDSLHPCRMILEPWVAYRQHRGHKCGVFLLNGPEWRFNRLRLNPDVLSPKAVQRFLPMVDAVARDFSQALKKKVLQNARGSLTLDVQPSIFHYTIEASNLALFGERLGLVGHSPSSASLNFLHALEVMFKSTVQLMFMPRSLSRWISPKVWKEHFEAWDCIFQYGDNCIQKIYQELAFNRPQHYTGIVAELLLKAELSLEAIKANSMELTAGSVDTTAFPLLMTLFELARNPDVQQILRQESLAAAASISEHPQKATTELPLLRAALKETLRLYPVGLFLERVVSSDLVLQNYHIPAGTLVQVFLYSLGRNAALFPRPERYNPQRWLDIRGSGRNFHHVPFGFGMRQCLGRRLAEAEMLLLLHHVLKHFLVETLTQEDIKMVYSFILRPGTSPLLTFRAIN
Description: Determination of IC50 Vs CYP11B1/CYP11B2 by Measurement of Cortisol/Aldosterone Synthesis
This assay was performed in a standard 384-well plate design using cultured V79 cells stably expressing human CYP11B1 or human CYP11B2. Test compounds at 10 concentrations (for example, 10000, 3333.3, 1111.1, 370.4, 123.5, 41.2, 13.7, 4.6, 1.5 and 0.5 nM) were added in 384-well plate after the cell-seeding procedure. The incubation substrate contains 1500 nM RSS for CYP11B1 assay/750 nM DOC for CYP11B2 assay. The Cortisol/Aldosterone production of cell culture supernatant was determined by Cortisol/Aldosterone HTRF kit after for about 15 hours incubation at RT (protect from light). IC50 values were calculated from the percent inhibition observed for each test compound at 10 concentrations.
The assay plate was read using Envision (Perkin Elmer, Waltham, Mass.) at 665 nm and 590 nm (using Filter Barcode of 217#, 205#; Mirror Barcode of 446#).
Data are analyzed using Assay Data Analyzer. All ratio data (665 nm/590 nm) are back calculated according to the standard curve, resulting in Cortisol/Aldosterone concentrations. IC50 values are reported as the Inflection Point (IP) of a four parameter fit of the titration data.
The following equation was used to calculate the % inhibition: % Activity=100×{1−(Sample_back calculated Cortisol/Aldosterone concentration−LC_back calculated Cortisol/Aldosterone concentration)/(HC_back calculated Cortisol/Aldosterone concentration−LC_back calculated Cortisol/Aldosterone concentration)} Curve Fitting: Four Parameter Logistic: […]

T1 sequence (P08684 2-503): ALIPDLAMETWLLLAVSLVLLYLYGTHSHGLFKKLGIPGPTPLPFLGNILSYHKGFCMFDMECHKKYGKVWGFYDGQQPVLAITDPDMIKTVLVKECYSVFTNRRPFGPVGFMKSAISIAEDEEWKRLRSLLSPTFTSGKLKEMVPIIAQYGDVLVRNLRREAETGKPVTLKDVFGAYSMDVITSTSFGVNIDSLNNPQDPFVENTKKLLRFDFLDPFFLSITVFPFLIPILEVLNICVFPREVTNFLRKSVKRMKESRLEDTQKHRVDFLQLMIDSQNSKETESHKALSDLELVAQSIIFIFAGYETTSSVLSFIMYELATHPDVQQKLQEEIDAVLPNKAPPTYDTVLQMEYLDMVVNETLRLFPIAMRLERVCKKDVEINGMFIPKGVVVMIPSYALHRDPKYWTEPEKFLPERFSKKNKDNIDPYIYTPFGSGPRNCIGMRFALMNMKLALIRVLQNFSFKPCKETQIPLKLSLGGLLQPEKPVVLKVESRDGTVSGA

In the case of `C[C@H](c1ccc(F)cc1)n1cncc1C1CC12CCN(S(=O)(=O)c1cnc(N3CCN(C)CC3)s1)CC2` (single isomer, unassigned) [Compound 43a], the IC50 (CYP3A4) is reported as 6 nM.

`C[C@H](c1ccc(F)cc1)n1cncc1C1CC12CCN(S(=O)(=O)c1cnc(N3CCN(C)CC3)s1)CC2` (single isomer, unassigned) [Compound 43b] gave an IC50 (CYP3A4) of 2 nM.

`C[C@H](c1ccc(F)cc1)n1cncc1CN1CCN(S(=O)(=O)c2cnc(N3CCNCC3)s2)CC1` [Compound 1] showed an IC50 (CYP3A4) of 1.4 nM.

`C[C@H](c1ccc(F)cc1)n1cncc1CN1CCN(S(=O)(=O)c2cnc(N3CCN(C)CC3)s2)CC1` [Compound 2] gave an IC50 (CYP3A4) of 1 nM.

Work on `C[C@H](c1ccc(F)cc1)n1cncc1CN1CCN(S(=O)(=O)c2cnc(N3CCC4(CC3)CNC(=O)N4)s2)CC1` [Compound 3] yielded an IC50 (CYP3A4) of 2.7 nM.

`C[C@H](c1ccc(C#N)cc1)n1cncc1CN1CCN(S(=O)(=O)c2cnc(Nc3ccc(C(F)(F)F)cn3)s2)CC1` [Compound 4] was tested, and the IC50 (CYP3A4) was < 0.1 nM.

`C[C@H](c1ccc(F)cc1)n1cncc1CN1CCN(S(=O)(=O)c2cnc(N3CCN4C[C@H](O)C[C@H]4C3)s2)CC1` [Compound 5] showed an IC50 (CYP3A4) of 3.8 nM.

`C[C@H](c1ccc(F)cc1)n1cncc1CN1CCN(S(=O)(=O)c2cnc(N3CCN4C[C@H](O)C[C@@H]4C3)s2)CC1` [Compound 6] gave an IC50 (CYP3A4) of 1.4 nM.

`C[C@H](c1ccc(F)cc1)n1cncc1CN1CCN(S(=O)(=O)c2cnc(N3CCC(S(C)(=O)=O)C3)s2)CC1` (stereo partly shown) [Compound 7] showed an IC50 (CYP3A4) of 1.7 nM and an IC50 (human CYP11B2) of 16300 nM.

`C[C@H](c1ccc(F)cc1)n1cncc1CN1CCN(S(=O)(=O)c2cnc(N3CCC(S(C)(=O)=O)C3)s2)CC1` (stereo partly shown) [Compound 8] gave an IC50 (CYP3A4) of 1.8 nM.

`C[C@H](c1ccc(F)cc1)n1cncc1CN1CCN(S(=O)(=O)c2cnc(N3CCN(C4CCN(C)CC4)CC3)s2)CC1` [Compound 9] gave an IC50 (CYP3A4) of 2.8 nM.

`C[C@H](c1ccc(F)cc1)n1cncc1CN1CCN(S(=O)(=O)c2cnc(N3CC[C@@H](N)[C@H](F)C3)s2)CC1` [Compound 12] showed an IC50 (CYP3A4) of 1 nM.

For `C[C@H](c1ccc(F)cc1)n1cncc1CN1CCN(S(=O)(=O)c2cnc(N3CC[C@@H]4OCCN[C@H]4C3)s2)CC1` [Compound 13], the IC50 (CYP3A4) was 1.4 nM.

`C[C@H](c1ccc(F)cc1)n1cncc1CN1CCN(S(=O)(=O)c2cnc(N3CC[C@@H]4NCCO[C@H]4C3)s2)CC1` [Compound 15] was tested, and the IC50 (CYP3A4) was 1.2 nM.

With `C[C@H](c1ccc(F)cc1)n1cncc1CN1CCN(S(=O)(=O)c2cnc(N3CC(=O)N4C[C@H](O)C[C@H]4C3)s2)CC1` [Compound 16] the IC50 (CYP3A4) was 5.2 nM.

`C[C@H](c1ccc(F)cc1)n1cncc1CN1CCN(S(=O)(=O)c2cnc(NCC(F)CN)s2)CC1` (stereo partly shown) [Compound 17] gave an IC50 (CYP3A4) of 1.7 nM.

`C[C@H](c1ccc(F)cc1)n1cncc1CN1CCN(S(=O)(=O)c2cnc(N3CCN4C[C@H](O)C[C@H]4C3=O)s2)CC1` [Compound 18] was tested, and the IC50 (CYP3A4) was 1.1 nM.

For `C[C@H](c1ccc(F)cc1)n1cncc1CN1CCN(S(=O)(=O)c2cnc(N3CCN4C[C@H](O)CC[C@H]4C3)s2)CC1` [Compound 19], the IC50 (CYP3A4) was 1.7 nM.

`C[C@H](c1ccc(F)cc1)n1cncc1CN1CCN(S(=O)(=O)c2cnc(N3CC[C@@H](N4CCOCC4)[C@H](F)C3)s2)CC1` [Compound 20] was tested, and the IC50 (CYP3A4) was 4.1 nM.

Compound `C[C@H](c1ccc(F)cc1)n1cncc1CN1CCN(S(=O)(=O)c2cnc(N3C[C@@H]4C[C@@H](O)CN4C[C@@H]3C)s2)CC1` [Compound 21] has an IC50 (CYP3A4) of 1.9 nM.

For `CC1CN(c2ncc(S(=O)(=O)N3CCN(Cc4cncn4[C@H](C)c4ccc(F)cc4)CC3)s2)C[C@@H]2C[C@@H](O)CN12` (stereo partly shown) [Compound 23], the IC50 (CYP3A4) was 1.6 nM.

With `C[C@H](c1ccc(F)cc1)n1cncc1CN1CCN(S(=O)(=O)c2cnc(N3CCN4C[C@H](O)CC4(C)C3)s2)CC1` (stereo partly shown) [Compound 24] the IC50 (CYP3A4) was 1.9 nM.

In the case of `C[C@H](c1ccc(F)cc1)n1cncc1CN1CCN(S(=O)(=O)c2cnc(N3CCC(N)(CO)CC3)s2)CC1` [Compound 25], the IC50 (CYP3A4) is reported as 1.9 nM.

`C[C@H](c1ccc(F)cc1)n1cncc1CN1CCN(S(=O)(=O)c2cnc(N3CCN4C(=O)OC[C@H]4C3)s2)CC1` [Compound 26] gave an IC50 (CYP3A4) of 1.5 nM.

In the case of `C[C@H](c1ccc(F)cc1)n1cncc1CN1CCN(S(=O)(=O)c2cnc(N3CCN4CCC(O)[C@H]4C3)s2)CC1` (stereo partly shown) [Compound 27], the IC50 (CYP3A4) is reported as 2.6 nM.

For `C[C@H](c1ccc(F)cc1)n1cncc1CN1CCN(S(=O)(=O)c2ccc(N3CCNCC3)cn2)CC1` [Compound 28], the IC50 (CYP3A4) was 4.4 nM.

With `C[C@H](c1ccc(F)cc1)n1cncc1CN1CCN(S(=O)(=O)c2cncc(N3CCNCC3)c2)CC1` [Compound 29] the IC50 (CYP3A4) was 2.9 nM.

`C[C@H](c1ccc(F)cc1)n1cncc1CN1CCN(S(=O)(=O)c2cnc(N3CCNCC3)cn2)CC1` [Compound 30] gave an IC50 (CYP3A4) of 3.6 nM.

`Cc1ccc(C2(n3cncc3CN3CCN(S(=O)(=O)c4cnc(N5CCN(C)CC5)s4)CC3)CC2)nc1` [Compound 31] gave an IC50 (CYP3A4) of 4.4 nM.

Compound `CN1CCN(c2ncc(S(=O)(=O)N3CCN(Cc4cncn4CCOc4ccc(Cl)cc4)CC3)s2)CC1` [Compound 32] has an IC50 (CYP3A4) of 1.2 nM.

For `CN1CCN(c2ncc(S(=O)(=O)N3CCN(Cc4cncn4CCOc4ccc(F)cn4)CC3)s2)CC1` [Compound 33], the IC50 (CYP3A4) was 2.3 nM.

`CC(c1cncn1[C@H](C)c1ccc(F)cc1)N1CCN(S(=O)(=O)c2cnc(N3CCN4C[C@H](O)C[C@H]4C3)s2)CC1` (stereo partly shown) [Compound 37] showed an IC50 (CYP3A4) of 4.1 nM.

For `C[C@H](c1ccc(F)cc1)n1cncc1C1C(=O)OCC2CN(S(=O)(=O)c3cnc(Nc4ccc(C(F)(F)F)cn4)s3)CCN21` (stereo partly shown) [Compound 39], the IC50 (CYP3A4) was 8 nM.

With `C[C@H](c1ccc(F)cc1)n1cncc1C1COCC2CN(S(=O)(=O)c3cnc(Nc4ccccn4)s3)CCN21` (stereo partly shown) [Compound 40] the IC50 (CYP3A4) was 0.8 nM.

In the case of `C[C@H](c1ccc(F)cc1)n1cncc1C1CN(C)CC2CN(S(=O)(=O)c3cnc(Nc4ccccn4)s3)CCN21` (stereo partly shown) [Compound 41], the IC50 (CYP3A4) is reported as 2.1 nM.

For `C[C@H](c1ccc(F)cc1)n1cnnc1CN1CCN(S(=O)(=O)c2cnc(N3CCN4C[C@H](O)C[C@H]4C3)s2)CC1` [Compound 42], the IC50 (CYP3A4) was 32 nM.

`C[C@H](c1ccc(F)cc1)n1cncc1CC1CCN(S(=O)(=O)c2cnc(N3CCN(C)CC3)s2)CC1` [Compound 44] was tested, and the IC50 (CYP3A4) was 1.1 nM.

With `C[C@H](c1ccc(F)cc1)n1cncc1CC1(CO)CCN(S(=O)(=O)c2cnc(N3CCN(C)CC3)s2)CC1` [Compound 47] the IC50 (CYP3A4) was 13 nM.

`C[C@H](c1ccc(F)cc1)n1cncc1CC1(C#N)CCN(S(=O)(=O)c2cnc(N3CCN(C)CC3)s2)CC1` [Compound 48] gave an IC50 (CYP3A4) of 9.4 nM.
